Literature values as cited in patent publication US6703389B2, “Method of treating chronic pain” (Pharmacia & Upjohn Company, priority 1999, dated 2004).

Assays:
[1] = literature (Leonard 1997)
[2] = mice, literature (Brunello and Racagni 1998)
[3] = tested on: norepinephrine reuptake compared to serotonin reuptake; conditions: rat brain synaptosomes, literature

| SMILES | effect in the 8-OH-DPAT hypothermia test [1] | effect on resperine-induced blepharospasm and hypothermia [2] | pharmacological selectivity for inhibiting norepinephrine reuptake compared to serotonin reuptake, ratio of Ki values [3] |
| --- | --- | --- | --- |
| CCOc1ccccc1OC(c1ccccc1)C1CNCCO1 (racemic) [Reboxetine, 2-[(2-ethoxyphenoxy)(phenyl)methyl]morpholine] | ineffective | prevent | – |
| CNCC(O)CC12CCC(c3ccccc31)c1ccccc12 (stereo not drawn) [oxaprotiline] | – | – | about 4166 |
